# Results: patent US20250285714A1, “A PHARMACEUTICAL PLATFORM TECHNOLOGY FOR DRUG DISCOVERY AND CONSUMER HEALTH PRODUCT DEVELOPMENT” (SINOVEDA CANADA INC., priority 2021, published 2025)
# Assays:
# [1] = system: HepG2 cells; assay: rtPCR TaqMan array of cancer pathway genes in treated HepG2 cells; type: cell-based, human; settings: 6 h; CBD 17, CBC 23, CBN 20, 1:1:1 17, sorafenib 12 μg/ml
# Experimental: rt-PCR: Target cancer gene pathways will be analyzed using a custom Taqman array card exploring 91 unique genes involved with a few cancer pathways.
# Two million HepG2 cells in IMDM media with 20% FBS, and 1% ethanol were seeded in T75 flasks and incubated at 37° C., 7.5% CO2 until 70-80% confluent (approx. […]). The media were replenished with media containing individual cannabinoids (CBD 17 μg/ml, CBC 23 μg/ml, CBN 20 μg/ml) and cannabinoid mixture of CBD:CBC:CBN of 1:1:1 (17 μg/ml) and incubated for 6 hours prior to harvest. […] Untreated cells were included as a negative control Glyceraldehyde-3-phosphate dehydrogenase (GAPDH) was included as an endogenous control and used for normalization of the data.
# RNA was extracted using Invitrogen's Dynabead mRNA DIRECT kit using the recommended protocol to provide 50 μL of a purified mRNA solution. […] of RT master mix was mixed into the mRNA solution and the mixture left to react at 37° C. for 60 minutes. Reverse transcriptase inactivation was performed at 95° C. for 5 minutes and the resulting cDNA samples were kept at 4° C. until use. Fifty-five microliters of TaqMan Fast Advance master mix were added to an equal amount of cDNA sample containing 1 μg/100 μl of cDNA, which was loaded into each card reservoir. The cards were centrifuged twice at 1200 RPM for 3 minutes in a Legend XFR centrifuge and the rtPCR reaction was conducted in a QuantStudio7 PCR instrument using the standard settings with 40 amplification cycles.
# Assessment of cancer gene pathways were carried out using custom designed TaqMan array cards exploring 86 genes linked to numerous cancer related pathways. […] In addition to individual pathways, genes linked to specific cellular processes were also explored.
# [2] = system: HepG2 cells; assay: In-cell Western-blot protein expression in treated HepG2 cells; type: cell-based, human; settings: six hour treatment; CBD 17, CBC 23, CBN 20, Sorafenib 12, SCI-111 17, SCI-521 17 μg/ml
# Experimental: In-cell Western-blot analysis: Protein expression was assessed by seeding 1000 HepG2 cells/well from cyro frozen stocks into 384 well optical bottom black culture plates from Thermo-Scientific (item 142761) in IMDM media with 20% FBS and 1% ethanol. […] After a six hour treatment, the cells were fixated with 4% formaldehyde for 15 minutes, permeated with 0.1% triton-x100 for 10 minutes, and left in blocking buffer (phosphate buffered saline (PBS) with 3% bovine serum albumin (BSA)) overnight at 4 degrees Celsius. The following day, the cells were rinsed with PBS, incubated with 25 μl PBS containing primary antibody (Table 1) for 3 hours at 25° C. Subsequently, the primary antibody was removed, cells were rinsed twice with PBS, and incubated with 25 μl of PBS containing the secondary antibody (Rabbit: Alexa Fluor 790 donkey anti-rabbit IgG (H+L) Lot 2409042; Mouse: Alexa Fluor 790 donkey anti-mouse IgG (H+L) Lot 2300923) at a concentration of 1:2000. Draq5 (1:2000) was added for normalization of data. After an hour incubation in the secondary antibody, the cells were rinsed with PBS and readings at 700 and 800 nm were acquired on a Licor Odyssey fluorescence imager with a resolution of 21 μm. Analysis was subsequently performed with Empiria Studio 2.1. A total of 5 samples were collected per antibody and the sample size was reduced to 3 for the statistical analysis.
smiles,measurement,setting,value
"CCCCCc1cc(O)c2c(c1)OC(C)(C)c1ccc(C)cc1-2 [CBN, Cannabinol]","rtPCR Log2 fold change relative to untreated cells, BAD (Apoptosis)",[1],−1.041 Log2 fold change
same,"rtPCR Log2 fold change relative to untreated cells, ELK1 (Ca signaling)",[1],−1.026 Log2 fold change
same,"rtPCR Log2 fold change relative to untreated cells, MAP3K (MAP kinase)",[1],1.518 Log2 fold change
same,"rtPCR Log2 fold change relative to untreated cells, MAPK8 (MAP kinase)",[1],−1.284 Log2 fold change
same,"rtPCR Log2 fold change relative to untreated cells, NOTCH1 (NOTCH)",[1],−1.084 Log2 fold change
same,"rtPCR Log2 fold change relative to untreated cells, PIK3C2A (PI3K/AKT/MTOR)",[1],−1.181 Log2 fold change
same,"rtPCR Log2 fold change relative to untreated cells, PIK3R5 (PI3K/AKT/MTOR)",[1],−2.689 Log2 fold change
same,"rtPCR Log2 fold change relative to untreated cells, PPARG (Receptors)",[1],2.204 Log2 fold change
same,"rtPCR Log2 fold change relative to untreated cells, SMAD3 (TGF signaling)",[1],−3.711 Log2 fold change
same,"rtPCR Log2 fold change relative to untreated cells, SMO (Hedgehog)",[1],2.336 Log2 fold change
same,"rtPCR Log2 fold change relative to untreated cells, TAZ (HIPPO)",[1],−1.143 Log2 fold change
same,"Protein fold change, DVLD (Cellular Adhesion)",[2],1.66 Fold change
same,"Protein fold change, MEK PO4 (MAP kinase/PI3K)",[2],1.33 Fold change
same,"Protein fold change, PI3K (MAP kinase/PI3K)",[2],1.46 Fold change
same,"Protein fold change, TEAD2 (HIPPO signaling)",[2],1.35 Fold change
same,"Protein fold change, c-MYC (Apoptosis)",[2],1.40 Fold change
same,"Protein fold change, p53 (Apoptosis)",[2],1.22 Fold change
